Assay results reported in patent US7473772B2, “Chimeric GB virus B (GBV-B)” (The Board of Regents of The University of Texas System, priority 2003, dated 2009).

Tested on: tamarin without a prior history of GBV-B infection
Experiment: Intrahepatic inoculation of synthetic GBV-B RNA into a tamarin; serum GBV-B RNA by real-time quantitative RT-PCR (TaqMan)
Assay type: in vivo, Saguinus oedipus
Conditions: about 60 μg RNA intrahepatic
From the text: Plasmid DNA containing the GBV-B cDNA was purified by isopycnic centrifugation on a CsCl gradient and isolated by ethanol precipitation. The plasmid DNA was linearized at the 3′ terminus of the cDNA insert by digestion with Xho I. Two μg of the linearized DNA was used as template in an in vitro transcription reaction using the Ambion T7 MEGAscript Kit according to the manufacturer's instructions. The integrity of the resultant synthetic RNA product was confirmed by nondenaturing agarose gel electrophoresis.
Approximately 60 μg of RNA transcribed from the GBV-B cDNA clone was diluted in phosphate buffered saline and injected under direct visualization at laparotomy into the liver of a healthy tamarin without a prior history of GBV-B infection (Saguinus oedipus). Serum samples were collected from the animal weekly beginning at 2 weeks post-inoculation and tested for the presence of GBV-B RNA by real-time quantitative RT-PCR (TaqMan® assay).

With “GBV-B cDNA clone: synthetic RNA transcribed from the full-length 9.4 kb GBV-B cDNA clone containing the novel 3′ terminal sequence” the “GBV-B RNA in serum” value (week 2 postinoculation) was 8.3 × 10^3 Genome equivalents/ml, the “GBV-B RNA in serum” value (week 3 postinoculation) was 6.6 × 10^5 Genome equivalents/ml and the “GBV-B RNA in serum” value (week 4 postinoculation) was 4.6 × 10^8 Genome equivalents/ml.
